Experimental data: ChEMBL document CHEMBL1140397, “Discovery of 4-aryl-4H-chromenes as a new series of apoptosis inducers using a cell- and caspase-based high-throughput screening assay. 2. Structure-activity relationships of the 7- and 5-, 6-, 8-positions” (Bioorg Med Chem Lett, 2005)

Key:
Type in all cases: functional
NCI-H1299 [1] = test: Growth inhibitory activity against human non-small cell lung cancer H1299 cells
T47D [2] = test: Growth inhibitory activity against human breast cancer T47D cell line
NCI-H1299 [3] = test: Effective concentration against human non-small cell lung cancer H1299 cells inducing apoptosis activity was measured by using cell and caspase-based HTS assay
T47D [4] = test: Effective concentration against human breast cancer T47D cell line apoptosis inducing activity was measured by using cell and caspase-based HTS assay
T47D [5] = test: Ratio of inhibition of cell proliferation activity to that of caspase activation inducing apoptosis activity in human breast cancer T47D cell line
NCI-H1299 [6] = test: Effective concentration against human non-small cell lung cancer H1299 cells inducing apoptosis, activity was measured by cell and caspase-based HTS assay
Tubulin beta-4B chain = Tubulin beta-4B chain (Homo sapiens, UniProt P68371); test: Inhibitory activity against tubulin using tubulin polymerization assay
T47D [7] = test: Effective concentration against human breast cancer T47D cell line inducing apoptosis activity was measured by cell and caspase-based HTS assay

Tubulin beta-4B chain, sequence (P68371 whole entry): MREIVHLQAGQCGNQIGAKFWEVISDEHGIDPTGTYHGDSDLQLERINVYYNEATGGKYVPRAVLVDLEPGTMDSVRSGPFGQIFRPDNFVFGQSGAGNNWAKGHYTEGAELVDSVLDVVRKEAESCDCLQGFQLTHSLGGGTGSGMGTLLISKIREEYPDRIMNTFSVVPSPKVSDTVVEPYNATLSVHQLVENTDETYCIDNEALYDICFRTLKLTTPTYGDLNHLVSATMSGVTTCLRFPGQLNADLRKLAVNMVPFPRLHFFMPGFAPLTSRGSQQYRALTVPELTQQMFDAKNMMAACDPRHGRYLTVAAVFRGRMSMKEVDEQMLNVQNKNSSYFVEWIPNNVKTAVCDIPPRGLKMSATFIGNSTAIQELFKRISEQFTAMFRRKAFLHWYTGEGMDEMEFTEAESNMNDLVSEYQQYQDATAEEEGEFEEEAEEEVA

Compound | EC50 (NCI-H1299 [3]) | EC50 (T47D [4]) | EC50 (NCI-H1299 [6]) | further results
COc1ccc2c(c1)OC(N)=C(C#N)C2c1cc(Br)c(OC)c(OC)c1 (stereo not given) | 34 nM | 17 nM |  | GI50 (NCI-H1299 [1]; Homo sapiens, NCI-H1299): 9 nM; GI50 (T47D [2]): 8 nM; GI50/EC50 (T47D [5]): 0.47
COc1cc(C2C(C#N)=C(N)Oc3c2ccc(N)c3N)cc(Cl)c1OC (stereo not given) |  | 24 nM | 58 nM | 
N#CC1=C(N)Oc2c(ccc(N)c2N)C1c1cccc([N+](=O)[O-])c1 (stereo not given) |  | 390 nM | 420 nM | 
CCCCNc1ccc2c(c1)OC(N)=C(C#N)C2c1cccc(Cl)c1 (stereo not given) |  | 120 nM | 190 nM | 
COc1cccc(C2C(C#N)=C(N)Oc3cc(OC)ccc32)c1 (stereo not given) |  | 52 nM | 89 nM | 
CCCCNc1ccc2c(c1)OC(N)=C(C#N)C2c1cccc(OC)c1 (stereo not given) |  | 110 nM | 190 nM | 
COc1cc(C2C(C#N)=C(N)Oc3cc(N)ccc32)cc(Br)c1OC (stereo not given) | 67 nM | 33 nM |  | GI50 (NCI-H1299 [1]; Homo sapiens, NCI-H1299): 76 nM; GI50 (T47D [2]): 77 nM; IC50 (Tubulin beta-4B chain): < 500 nM; GI50/EC50 (T47D [5]): 2.3
COc1cncc(C2C(C#N)=C(N)Oc3cc(OC)ccc32)c1 (stereo not given) |  | 47 nM | 100 nM | GI50 (NCI-H1299 [1]; Homo sapiens, NCI-H1299): 72 nM; GI50 (T47D [2]): 65 nM; GI50/EC50 (T47D [5]): 1.4
COc1cc2c(cc1OC)C(c1cc(OC)c3c(c1)OCO3)C(C#N)=C(N)O2 (stereo not given) | > 10000 nM |  |  | GI50 (NCI-H1299 [1]; Homo sapiens, NCI-H1299): > 10000 nM; GI50 (T47D [2]): > 10000 nM; EC50 (T47D [7]): > 10000 nM; GI50/EC50 (T47D [5]): 1
COc1cc(C2C(C#N)=C(N)Oc3c2ccc(N)c3N)cc(I)c1OC (stereo not given) |  | 49 nM | 100 nM | 
COc1cc(C2C(C#N)=C(N)Oc3cc(O)ccc32)cc(Br)c1OC (stereo not given) |  | 130 nM | 210 nM | GI50 (NCI-H1299 [1]; Homo sapiens, NCI-H1299): 190 nM; GI50 (T47D [2]): 800 nM; GI50/EC50 (T47D [5]): 6.1
CCCCNc1ccc2c(c1)OC(N)=C(C#N)C2c1cc(OC)cc(OC)c1 (stereo not given) |  | 55 nM | 120 nM | 
COc1cc(C2C(C#N)=C(N)Oc3cc(Br)ccc32)cc(Br)c1OC (stereo not given) |  | 140 nM | 280 nM | 
CCNc1cc2c(cc1C)C(c1cc(OC)c3c(c1)OCO3)C(C#N)=C(N)O2 (stereo not given) | 1400 nM |  |  | EC50 (T47D [7]): 1100 nM
COc1cc(C2C(C#N)=C(N)Oc3cc(Cl)ccc32)cc(Br)c1OC (stereo not given) | 290 nM | 160 nM |  | GI50 (NCI-H1299 [1]; Homo sapiens, NCI-H1299): 55 nM; GI50 (T47D [2]): 64 nM
COc1ccc2c(c1)OC(N)=C(C#N)C2c1cc(OC)c2c(c1)OCO2 (stereo not given) | 230 nM |  |  | GI50 (NCI-H1299 [1]; Homo sapiens, NCI-H1299): 240 nM; GI50 (T47D [2]): 260 nM; EC50 (T47D [7]): 160 nM; GI50/EC50 (T47D [5]): 1.6
COc1cc(OC)c2c(c1)OC(N)=C(C#N)C2c1cc(OC)c2c(c1)OCO2 (stereo not given) | > 10000 nM |  |  | GI50 (NCI-H1299 [1]; Homo sapiens, NCI-H1299): > 10000 nM; GI50 (T47D [2]): > 10000 nM; EC50 (T47D [7]): > 10000 nM; GI50/EC50 (T47D [5]): 1
COc1cc(OC)cc(C2C(C#N)=C(N)Oc3c2ccc(N)c3N)c1 (stereo not given) |  | 92 nM | 190 nM | 
CCNc1ccc2c(c1)OC(N)=C(C#N)C2c1cc(Br)c(OC)c(OC)c1 (stereo not given) | 27 nM | 14 nM |  | 
COc1cc(C2C(C#N)=C(N)Oc3c2ccc(N)c3C)cc2c1OCO2 (stereo not given) | 770 nM | 310 nM |  | GI50 (NCI-H1299 [1]): 860 nM; GI50 (NCI-H1299 [1]; Homo sapiens, NCI-H1299): 490 nM
CCCCNc1ccc2c(c1)OC(N)=C(C#N)C2c1cccc([N+](=O)[O-])c1 (stereo not given) |  | 110 nM | 170 nM | 
COc1ccc2c(c1)OC(N)=C(C#N)C2c1cccc(Cl)c1 (stereo not given) |  | 80 nM | 160 nM | 
COc1cc(OC)cc(C2C(C#N)=C(N)Oc3cc(OC)ccc32)c1 (stereo not given) |  | 15 nM | 32 nM | 

Compound | EC50 (NCI-H1299 [3]) | EC50 (T47D [4]) | EC50 (NCI-H1299 [6]) | further results
N#CC1=C(N)Oc2c(ccc(N)c2N)C1c1cccc(C#N)c1 (stereo not given) |  | 390 nM | 460 nM | 
COc1cc(C2C(C#N)=C(N)Oc3c2ccc(N)c3N)cc(Br)c1O (stereo not given) |  | 23 nM | 62 nM | 
COc1ccc2c(c1)OC(N)=C(C#N)C2c1cccc([N+](=O)[O-])c1 (stereo not given) |  | 89 nM | 170 nM | 
COc1cc(C2C(C#N)=C(N)Oc3cc4c(cc32)OCO4)cc2c1OCO2 (stereo not given) | 270 nM | 210 nM |  | 
COc1cc(C2C(C#N)=C(N)Oc3c2ccc(O)c3N)cc(Br)c1OC (stereo not given) |  | 61 nM | 180 nM | GI50 (NCI-H1299 [1]; Homo sapiens, NCI-H1299): 110 nM; GI50 (T47D [2]): 120 nM; GI50/EC50 (T47D [5]): 2
COc1cc(C2C(C#N)=C(N)Oc3cc(N(C)C)ccc32)cc2c1OCO2 (stereo not given) | 93 nM |  |  | EC50 (T47D [7]): 730 nM
CCOc1ccc2c(c1)OC(N)=C(C#N)C2c1cc(Br)c(OC)c(OC)c1 (stereo not given) |  | 64 nM | 92 nM | 
N#CC1=C(N)Oc2c(ccc(N)c2N)C1c1cccc(Br)c1 (stereo not given) |  | 150 nM | 230 nM | 
COc1ccc2c(c1)OC(N)=C(C#N)C2c1cccnc1 (stereo not given) |  | 170 nM | 290 nM | 
COc1ccc2c(c1)OC(N)=C(C#N)C2c1cccc(Br)c1 (stereo not given) |  | 52 nM | 95 nM | 
COc1cc(C2C(C#N)=C(N)Oc3cc(O)ccc32)cc2c1OCO2 (stereo not given) | 5600 nM |  |  | GI50 (NCI-H1299 [1]; Homo sapiens, NCI-H1299): 5500 nM; GI50 (T47D [2]): 6080 nM; EC50 (T47D [7]): 5800 nM; GI50/EC50 (T47D [5]): 1
COc1ccc2c(c1)OC(N)=C(C#N)C2c1cc(OC)c(OC)c(OC)c1 (stereo not given) |  | 26 nM | 57 nM | 
COc1cc(C2C(C#N)=C(N)Oc3cc(N4CCOCC4)ccc32)cc2c1OCO2 (stereo not given) | > 10000 nM |  |  | EC50 (T47D [7]): > 10000 nM
COc1cc(C2C(C#N)=C(N)Oc3c2ccc(N)c3C)cc(Br)c1OC (stereo not given) |  | 26 nM | 53 nM | 
COc1cc(C2C(C#N)=C(N)Oc3cc(Nc4ccccc4)ccc32)cc2c1OCO2 (stereo not given) | > 10000 nM |  |  | EC50 (T47D [7]): > 10000 nM
COc1cc(C2C(C#N)=C(N)Oc3c2ccc(N)c3N)cc(Br)c1OC (stereo not given) |  | 34 nM | 81 nM | GI50 (NCI-H1299 [1]; Homo sapiens, NCI-H1299): 31 nM; GI50 (T47D [2]): 150 nM; GI50/EC50 (T47D [5]): 4.4
COc1ccc2c(c1)OC(N)=C(C#N)C2c1ccccc1 (stereo not given) |  | 360 nM | 520 nM | 
CCCCNc1ccc2c(c1)OC(N)=C(C#N)C2c1cc(OC)c(OC)c(OC)c1 (stereo not given) |  | 49 nM | 110 nM | 
COc1cc(C2C(C#N)=C(N)Oc3c2ccc(C)c3C)cc(Br)c1OC (stereo not given) |  | 42 nM | 87 nM | 
CCN(CC)c1ccc2c(c1)OC(N)=C(C#N)C2c1cc(OC)c2c(c1)OCO2 (stereo not given) | 530 nM |  |  | EC50 (T47D [7]): 480 nM
CCNc1ccc2c(c1)OC(N)=C(C#N)C2c1cc(OC)c2c(c1)OCO2 (stereo not given) | 400 nM |  |  | EC50 (T47D [7]): 330 nM
COc1cc(C2C(C#N)=C(N)Oc3c2ccc(O)c3O)cc(Br)c1OC (stereo not given) |  | 1700 nM | 2500 nM | 
COc1cc(C2C(C#N)=C(N)Oc3cc(N)ccc32)cc2c1OCO2 (stereo not given) | 1700 nM |  |  | GI50 (NCI-H1299 [1]; Homo sapiens, NCI-H1299): 1200 nM; GI50 (T47D [2]): 2400 nM; EC50 (T47D [7]): 1200 nM; GI50/EC50 (T47D [5]): 2.1
